In patent US20160115225A1, “Methods of Reducing Methylglyoxal (MGO) Modification of Recombinant Proteins in Cell Culture” (AbbVie Inc., priority 2014, published 2016):

Test system: adalimumab producing cell line 2
Test: WCX-10 quantification of acidic species of adalimumab, bioreactor culture, cell line 2
Type: cell-based
Conditions: Example 4; 0.15 g/l 2DDG; control 29.8%
Method: Two adalimumab producing cell lines were employed in the studies covered here. Upon thaw, cells were cultured in their respective growth media in a combination of vented non-baffled shake flasks (Corning) on a shaker platform at 110 RPM (cell line 1) and 140 RPM (cell line 2) and 10 L or 20 L wave bags (GE). Cultures were propagated in a 35° C., 5% CO2 incubator for cell line 1 and 36° C., 5% CO2 incubator for cell line 2 to obtain the required number of cells to be able to initiate production stage cultures.
For the bioreactor (3 L Applikon) experiments (Examples 1, 2 and 3), 3 L, bioreactors (1.5 L working volume) were initiated at 35° C. (cell line 1) and 36° C. (cell line 2), 30% DO, 200 rpm, pH of 7.1. […]
This method is employed towards the quantification of the acidic species and other charge variants present in cell culture harvest samples. […]
Quantitation is based on the relative area percent of detected peaks. […]
The objective of this experiment was to further evaluate the control of MGO synthesis/MGO protein modification through reduced glucose consumption in a different cell line, Cell line 2. […] As described in Example 3, extracellular MGO quantification was performed for day 7, 8 and 9 for the samples below and percentage of acidic species were quantified using WCX-10 analysis post protein A of cell culture harvests.

O=CC[C@@H](O)[C@H](O)[C@H](O)CO [Test 2DDG, 2-Deoxy-D-Glucose]
percentage of acidic species: 27.2%
